The values that follow come from patent US7816353B2 (Exelixis, Inc., priority 2003, dated 2010).

One may read the IC50 as the concentration that gives 50% inhibition.

The target in the assay is T1, p70S6K (Homo sapiens, UniProt P23443, T412E).
T1 construct: human p70S6 kinase domain residues 1-421, containing a T412E mutation; made in house
Description: p70S6 Kinase Assay (Luciferase-Coupled Chemiluminescent Kinase assay, LCCA). The class given is biochemical. The conditions noted are these: human p70S6 kinase domain residues 1-421, T412E; 5 μM ATP; read-out: p70S6K IC50. The protocol:
Kinase activity and compound inhibition are investigated using one or more of the three assay formats described below. The ATP concentrations for each assay are selected to be close to the Michaelis-Menten constant (KM) for each individual kinase. Dose-response experiments are performed at 10 different inhibitor concentrations in a 384-well plate format. […] Y=Min+(Max−Min)/(1+(X/IC50)^H) Equation (2) p70S6 Kinase Assay
Biochemical activity of p70S6 kinase was assessed using a Luciferase-Coupled Chemiluminescent Kinase assay (LCCA) format. Kinase activity was measured as the percent ATP remaining following the kinase reaction. Remaining ATP was detected by luciferase-luciferin-coupled chemiluminescence. […] The mixture is incubated at ambient temperature for 2 hours after which 20 μL luciferase-luciferin mix is added and the chemiluminescent signal read using a Wallac Victor^2 reader.

Each structure is given as a SMILES string.

T1 sequence (P23443 1-421 T412E): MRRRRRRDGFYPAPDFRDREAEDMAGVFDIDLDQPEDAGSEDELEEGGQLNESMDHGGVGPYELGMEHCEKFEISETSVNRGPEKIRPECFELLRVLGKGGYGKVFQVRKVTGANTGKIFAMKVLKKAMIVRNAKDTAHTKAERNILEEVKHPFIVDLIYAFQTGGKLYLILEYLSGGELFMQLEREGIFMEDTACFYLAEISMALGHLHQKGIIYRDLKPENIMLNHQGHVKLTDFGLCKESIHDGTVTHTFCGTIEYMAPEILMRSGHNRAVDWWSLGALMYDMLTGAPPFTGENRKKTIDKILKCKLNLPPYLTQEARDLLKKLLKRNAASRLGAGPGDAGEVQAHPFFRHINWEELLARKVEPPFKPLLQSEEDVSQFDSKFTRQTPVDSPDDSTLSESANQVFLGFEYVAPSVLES

For `CCOc1nc(N)nc(N[C@@H](C)C(=O)Nc2cc(C(=O)NCCCN3CCCC3)cc(C(F)(F)F)c2)c1C#N` [Example 158, 3-({N-[2-amino-5-cyano-6-(ethyloxy)pyrimidin-4-yl]-L-alanyl}amino)-N-(3-pyrrolidin-1-ylpropyl)-5-(trifluoromethyl)benzamide], the IC50 was > 2000 nM.

Regarding `COC(=O)c1cc(NC(=O)[C@H](C)Nc2nc(N)nc(OC)c2C#N)cc(C(F)(F)F)c1` [Example 189, methyl 3-({N-[2-amino-5-cyano-6-(methyloxy)pyrimidin-4-yl]-L-alanyl}amino)-5-(trifluoromethyl)benzoate], the IC50 is > 2000 nM.

As for `CSc1nc(N)nc(N[C@@H](C)C(=O)Nc2cccc(C(=O)N3CCN(C)CC3)c2)c1C#N` [Example 82, N^2-[2-amino-5-cyano-6-(methylthio)pyrimidin-4-yl]-N-{3-[(4-methylpiperazin-1-yl)carbonyl]phenyl}-L-alaninamide], the IC50 was > 2000 nM.

For the compound `CCOc1nc(N)nc(N[C@@H](CCCN2CCOCC2)C(=O)Nc2cccc(C(F)(F)F)c2)c1C#N` [Example 168, N~2~-[2-amino-5-cyano-6-(ethyloxy)pyrimidin-4-yl]-5-morpholin-4-yl-N-[3-(trifluoromethyl)phenyl]-L-norvalinamide], the IC50 is > 2000 nM.

On to `COc1nc(N)nc(N[C@@H](C)C(=O)Nc2cc(C(=O)NCCN(C)C)cc(C(F)(F)F)c2)c1C#N` [Example 190, 3-({N-[2-amino-5-cyano-6-(methyloxy)pyrimidin-4-yl]-L-alanyl}amino)-N-[2-(dimethylamino)ethyl]-5-(trifluoromethyl)benzamide], for which the IC50 is > 2000 nM.

Consider `COc1ccc(C(F)(F)F)cc1NC(=O)CSc1nc(N)nc(SC)c1C#N` [Example 54, 2-{[2-mino-5-cyano-6-(methylthio)pyrimidin-4-yl]thio}-N-[2-(methyloxy)-5-(trifluoromethyl)phenyl]acetamide], for which the IC50 is 500 to 2000 nM.

Turning to `CSc1nc(N)nc(NC2(C(=O)Nc3cccc(C(F)(F)F)c3)CC2)c1C#N` [Example 73, 1-{[2-amino-5-cyno-6-(methylthio)pyrimidin-4-yl]amino}-N-[3-(trifluoromethyl)phenyl]cyclopropanecarboxamide], the IC50 is > 2000 nM.

`CSc1nc(N)nc(N[C@@H](C)C(=O)Nc2cccc([N+](=O)[O-])c2)c1C#N` [Example 113, N^2-[2-amino-5-cyano-6-(methylthio)pyrimidin-4-yl]-N-(3-nitrophenyl)-L-alaninamide]: the IC50 was > 2000 nM.

With `CSc1nc(N)nc(N[C@@H](CCCCNC(=O)OC(C)(C)C)C(=O)Nc2cccc(C(F)(F)F)c2)c1C#N` [Example 103, N^2-[2-amino-5-cyano-6-(methylthio)pyrimidin-4-yl]-N-6-{[(1,1-dimethylethyl)oxy]carbonyl}-N-[3-(trifluoromethyl)phenyl]-L-lysinamide], the half-maximal inhibitory concentration (IC50) is > 2000 nM.

As for `COc1ccc(C(F)(F)F)cc1NC(=O)[C@H](C)Nc1nc(N)nc(SC)c1C#N` [Example 79, N^2-[2-amino-5-cyano-6-(methylthio)pyrimidin-4-yl]-N-[2-(methyloxy)-5-(trifluoromethyl)phenyl]-L-alaninmide], the IC50 is > 2000 nM.

With `CCOc1nc(N)nc(N[C@@H](C)C(=O)Nc2cccc(C(F)(F)F)c2)c1C#N` [Example 88, N^2-[2-amino-5-cyano-6-(ethyloxy)pyrimidin-4-yl]-N-[3-(trifluoromethyl)phenyl]-L-alaninamide], the IC50 was > 2000 nM.

For the compound `CCOc1nc(N)nc(N[C@@H](CO)C(=O)Nc2cccc(C(F)(F)F)c2)c1C#N` [Example 150, N~2~-[2-amino-5-cyano-6-(ethyloxy)pyrimidin-4-yl]-N-[3-(trifluoromethyl)phenyl]-L-serinamide], the IC50 lay in the range of 500 to 2000 nM.

Turning to `C[C@H](Nc1nc(N)nc(S(C)(=O)=O)c1C#N)C(=O)Nc1cccc(C(F)(F)F)c1` [Example 75, N^2-[2-amino-5-cyano-6-(methylsulfonyl)pyrimidin-4-yl]-N-[3-(trifluoromethyl)phenyl]-L-alaninamide], the half-maximal inhibitory concentration (IC50) is > 2000 nM.

Take `CSc1nc(N)nc(N[C@@H](C)C(=O)Nc2cccc(C(F)(F)F)c2)c1C#N` [Example 60, N^2-[2-amino-5-cyano-6-(methylthio)pyrimidin-4-yl]-N-[3-(trifluoromethyl)phenyl]-L-alaninamide]: the IC50 is 500 to 2000 nM.

As to `CCOc1nc(N)nc(N[C@@H](C)C(=O)Nc2cc(C(=O)N3CCN(C)CC3)cc(C(F)(F)F)c2)c1C#N` [Example 157, N~2~-[2-amino-5-cyano-6-(ethyloxy)pyrimidin-4-yl]-N-[3-[(4-methylpiperazin-1-yl)carbonyl]-5-(trifluoromethyl)phenyl]-L-alaninamide], the IC50 is > 2000 nM.

Consider `CCOc1nc(N)nc(N[C@@H](CCCNC(C)=O)C(=O)Nc2cccc(C(F)(F)F)c2)c1C#N` [Example 186, N~5~-acetyl-N~2~-[2-amino-5-cyano-6-(ethyloxy)pyrimidin-4-yl]-N-[3-(trifluoromethyl)phenyl]-L-ornithinamide], for which the IC50 is > 2000 nM.

For `CCOc1nc(N)nc(N[C@@H](CN(C)C)C(=O)Nc2cccc(C(F)(F)F)c2)c1C#N` [Example 176, N~2~-[2-amino-5-cyano-6-(ethyloxy)pyrimidin-4-yl]-3-(dimethylamino)-N-[3-(trifluoromethyl)phenyl]-L-alaninamide], the IC50 was > 2000 nM.

For the compound `CNc1nc(N)nc(SCC(=O)Nc2cccc(C(F)(F)F)c2)c1C#N` [Example 61, 2-{[2-amino-5-cyano-6-(methylamino)pyrimidin-4-yl]thio}-N-[3-(trifluoromethyl)phenyl]acetamide], the IC50 lay within 500 to 2000 nM.

With `CNc1nc(N)nc(SCC(=O)Nc2cccc(C(F)(F)F)c2)c1C=O` [Example 45, 2-{[2-amino-5-formyl-6-(methylamino)pyrimidin-4-yl]thio}-N-[3-(trifluoromethyl)phenyl]acetamide], the IC50 lay within 50 to 500 nM.

Regarding `CSc1nc(N)nc(N(C)[C@@H](CCCCNC(=O)OCc2ccccc2)C(=O)Nc2cccc(C(F)(F)F)c2)c1C#N` [Example 153, N~2~-[2-amino-5-cyano-6-(methylthio)pyrimidin-4-yl]-N~2~-methyl-N~6~-{[(phenylmethyl)oxy]carbonyl}-N-[3-(trifluoromethyl)phenyl]-L-lysinamide], the IC50 was > 2000 nM.

For the compound `CCOc1nc(N)nc(N[C@@H](CCC(=O)NN)C(=O)Nc2cccc(C(F)(F)F)c2)c1C#N` [Example 177, ′2-(2-amino-5-cyano-6-ethoxy-pyrimidin-4-ylamino)-4-hydrazinocarbonyl-N-(3-trifluoromethyl-phenyl)-butyramide], the IC50 is > 2000 nM.

For `CSc1nc(N)nc(N(C)NC(=O)Nc2cccc(C(F)(F)F)c2)c1C#N` [Example 96, 2-[2-amino-5-cyano-6-(methylthio)pyrimidin-4-yl]-2-methyl-N-[3-(trifluoromethyl)phenyl]hydrazinecaboxamide], the IC50 is > 2000 nM.

With `CSc1nc(N)nc(N[C@@H](CCCCN)C(=O)Nc2cccc(C(F)(F)F)c2)c1C#N` [Example 114, N^2-[2-amino-5-cyano-6-(methylthio)pyrimidin-4-yl]-N-[3-(trifluoromethyl)phenyl]-L-lysinamide], the IC50 is > 2000 nM.
